In ChEMBL document CHEMBL1201862, “PubChem BioAssay data set” (2004):
Several values for one entry are separate records, joined by “and”; a condition that tells them apart may be missing. Equal values may be shown once.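 Test compounds were applied to cells in 96-well plates for 48 hours at 5 doses. GI50 = concentration required for 50% inhibition of growth.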 Activity calls are given as the source filed them. Cut-off read from the data, not from the text of the source: active = GI50 up to about 1.1 µM and inactive = higher.

How the values were obtained:
Assay in all cases: NCI-60 cell line screen, 48 h
A498 = tested on: A498
BT-549 = tested on: BT-549
CAKI-1 = tested on: CAKI-1
COLO 205 = tested on: COLO 205
DU-145 = tested on: DU-145
HCC 2998 = tested on: HCC 2998
HL-60 = tested on: HL-60
HOP-62 = tested on: HOP-62
K562 = tested on: K562
LOX IMVI = tested on: LOX IMVI
MDA-MB-231 = tested on: MDA-MB-231
MOLT-4 = tested on: MOLT-4
Malme-3M = tested on: Malme-3M
NCI-H23 = tested on: NCI-H23
NCI/ADR-RES = tested on: NCI/ADR-RES
OVCAR-3 = tested on: OVCAR-3
OVCAR-5 = tested on: OVCAR-5
PC-3 = tested on: PC-3
RPMI-8226 = tested on: RPMI-8226
RXF 393 = tested on: RXF 393
SF-268 = tested on: SF-268
SK-MEL-2 = tested on: SK-MEL-2
SK-MEL-5 = tested on: SK-MEL-5
SNB-19 = tested on: SNB-19
SNB-75 = tested on: SNB-75
T47D = tested on: T47D
TK-10 = tested on: TK-10
UACC-257 = tested on: UACC-257
UO-31 = tested on: UO-31
786-0 = tested on: 786-0
A549 = tested on: A549
ACHN = tested on: ACHN
CCRF-CEM = tested on: CCRF-CEM
EKVX = tested on: EKVX
HCT-116 = tested on: HCT-116
HOP-92 = tested on: HOP-92
HT-29 = tested on: HT-29
IGROV-1 = tested on: IGROV-1
KM12 = tested on: KM12
M14 = tested on: M14
MCF7 = tested on: MCF7
MDA-MB-435 = tested on: MDA-MB-435
MDA-N = tested on: MDA-N
NCI-H226 = tested on: NCI-H226
NCI-H460 = tested on: NCI-H460
NCI-H522 = tested on: NCI-H522
OVCAR-4 = tested on: OVCAR-4
OVCAR-8 = tested on: OVCAR-8
SF-295 = tested on: SF-295
SF-539 = tested on: SF-539
SK-MEL-28 = tested on: SK-MEL-28
SN12C = tested on: SN12C
SR = tested on: SR
SW-620 = tested on: SW-620
U-251 = tested on: U-251
UACC-62 = tested on: UACC-62
HCT-15 = tested on: HCT-15
Hs-578T = tested on: Hs-578T
SK-OV-3 = tested on: SK-OV-3

Measured: GI50

CC(C)=CCC/C(C)=C\CCC1(C)OC(=O)C2CC21 (stereo not given)
inactive: A498 98.9 µM | BT-549 31.8 µM and 34 µM | CAKI-1 23.8 µM and 32.3 µM | COLO 205 49.1 µM and 59.8 µM | DU-145 92.7 µM | HCC 2998 21.1 µM and 36.1 µM | HL-60 18.5 µM and 12.3 µM | HOP-62 > 100 µM and 53.5 µM | K562 22.4 µM and 17.2 µM | LOX IMVI 15 µM and 27.7 µM | MDA-MB-231 50.5 µM | MOLT-4 18.1 µM and 22.7 µM | Malme-3M 80.2 µM | NCI-H23 28.7 µM and 40.4 µM | NCI/ADR-RES 42.4 µM and 33.3 µM | OVCAR-3 51.5 µM and 27.5 µM | OVCAR-5 > 100 µM | PC-3 25.9 µM and 35.4 µM | RPMI-8226 28.3 µM and 19.7 µM | RXF 393 40.6 µM | SF-268 > 100 µM | SK-MEL-2 45.6 µM | SK-MEL-5 43.6 µM and 41.1 µM | SNB-19 > 100 µM and 71.1 µM | SNB-75 55.7 µM | T47D > 100 µM and 63.4 µM | TK-10 56.6 µM | UACC-257 73.6 µM and 47.3 µM | UO-31 44.4 µM and 37.2 µM

COc1nc2c(c(=O)[nH]1)N=C(c1ccc([N+](=O)[O-])cc1)CC(c1ccccc1)N2 (stereo not given)
inactive: 786-0 > 100 µM | A498 > 100 µM | A549 83.4 µM | ACHN 76.4 µM | BT-549 > 100 µM | CAKI-1 > 100 µM | CCRF-CEM 37.9 µM | COLO 205 > 100 µM | DU-145 > 100 µM | EKVX 95.9 µM | HCC 2998 > 100 µM | HCT-116 34.5 µM | HL-60 16 µM | HOP-62 > 100 µM | HOP-92 84.3 µM | HT-29 > 100 µM | IGROV-1 > 100 µM | K562 58.2 µM | KM12 70.5 µM | LOX IMVI 38.4 µM | M14 > 100 µM | MCF7 57.7 µM | MDA-MB-231 > 100 µM | MDA-MB-435 > 100 µM | MDA-N > 100 µM | MOLT-4 54.3 µM | Malme-3M > 100 µM | NCI-H226 > 100 µM | NCI-H23 69.8 µM | NCI-H460 73.6 µM | NCI-H522 66.4 µM | NCI/ADR-RES > 100 µM | OVCAR-3 > 100 µM | OVCAR-4 62.8 µM | OVCAR-5 > 100 µM | OVCAR-8 > 100 µM | PC-3 84.3 µM | RPMI-8226 44.1 µM | RXF 393 94.6 µM | SF-295 > 100 µM | SF-539 > 100 µM | SK-MEL-28 94.8 µM | SK-MEL-2 > 100 µM | SK-MEL-5 49.7 µM | SN12C > 100 µM | SNB-19 > 100 µM | SNB-75 32.8 µM | SR 99.1 µM | SW-620 > 100 µM | U-251 > 100 µM | UACC-257 > 100 µM | UACC-62 59.2 µM | UO-31 62.4 µM

CC(=O)N1CN2C(=O)CCC2c2ccccc21 (stereo not given)
active: SR 0.165 µM
inactive: 786-0 > 100 µM | A498 > 100 µM | A549 > 100 µM | ACHN > 100 µM | CAKI-1 > 100 µM | CCRF-CEM > 100 µM | COLO 205 > 100 µM | DU-145 > 100 µM | EKVX > 100 µM | HCC 2998 > 100 µM | HCT-116 > 100 µM | HL-60 > 10 µM | HOP-62 > 100 µM | HOP-92 > 100 µM | HT-29 > 100 µM | Hs-578T > 100 µM | IGROV-1 > 100 µM | K562 > 100 µM | KM12 > 100 µM | LOX IMVI > 100 µM | M14 > 100 µM | MCF7 > 100 µM | MDA-MB-231 > 100 µM | MDA-MB-435 > 100 µM | MDA-N > 100 µM | MOLT-4 > 100 µM | Malme-3M > 100 µM | NCI-H226 > 100 µM | NCI-H23 > 100 µM | NCI-H460 > 100 µM | NCI-H522 > 100 µM | NCI/ADR-RES > 100 µM | OVCAR-3 > 100 µM | OVCAR-4 > 100 µM | OVCAR-5 > 100 µM | OVCAR-8 > 100 µM | PC-3 > 100 µM | RPMI-8226 > 100 µM | RXF 393 > 100 µM | SF-268 > 100 µM | SF-295 > 100 µM | SF-539 > 100 µM | SK-MEL-28 > 100 µM | SK-MEL-2 > 100 µM | SK-MEL-5 > 100 µM | SK-OV-3 > 100 µM | SN12C > 100 µM | SNB-19 > 100 µM | SNB-75 > 100 µM | SW-620 > 100 µM | T47D > 100 µM | TK-10 > 100 µM | U-251 > 100 µM | UACC-257 > 100 µM | UACC-62 > 100 µM | UO-31 > 100 µM
> 100 µM: HCT-15

COC(=O)c1ccc(OCCn2nnc(C(=O)NN)c2C(=O)NN)cc1
inactive: 786-0 > 100 µM | A549 > 100 µM | ACHN > 100 µM | BT-549 > 100 µM | CAKI-1 > 100 µM | CCRF-CEM > 100 µM | COLO 205 > 100 µM | DU-145 > 100 µM | EKVX > 100 µM | HCC 2998 > 100 µM | HCT-116 > 100 µM | HL-60 > 100 µM | HOP-62 > 100 µM | HOP-92 > 100 µM | HT-29 > 100 µM | K562 > 100 µM | KM12 > 100 µM | LOX IMVI > 100 µM | M14 > 100 µM | MCF7 > 100 µM | MDA-MB-231 > 100 µM | MDA-MB-435 > 100 µM | MDA-N > 100 µM | MOLT-4 > 100 µM | Malme-3M > 100 µM | NCI-H23 > 100 µM | NCI-H460 74 µM | NCI/ADR-RES > 100 µM | OVCAR-3 > 100 µM | OVCAR-4 > 100 µM | OVCAR-5 > 100 µM | OVCAR-8 > 100 µM | PC-3 > 100 µM | RPMI-8226 > 100 µM | SF-295 > 100 µM | SK-MEL-28 > 100 µM | SK-MEL-2 > 100 µM | SK-MEL-5 > 100 µM | SN12C > 100 µM | SNB-19 > 100 µM | SR > 100 µM | TK-10 > 100 µM | U-251 > 100 µM | UACC-257 > 100 µM | UO-31 > 100 µM
> 100 µM: HCT-15

NN/C(=N\S(=O)(=O)c1cc(Cl)c(Oc2ccc([N+](=O)[O-])cc2Cl)c(Cl)c1)Nc1ccc(Cl)cc1
19.2 µM: HCT-15
inactive: 786-0 18.2 µM | A498 22.8 µM | A549 17.9 µM | ACHN 23.7 µM | BT-549 18.4 µM | CAKI-1 17.9 µM | CCRF-CEM 10.8 µM | COLO 205 15.6 µM | DU-145 19.2 µM | EKVX 21.8 µM | HCT-116 15.7 µM | HOP-62 18.4 µM | HOP-92 19.9 µM | HT-29 19.1 µM | IGROV-1 20.2 µM | K562 27 µM | KM12 18.8 µM | LOX IMVI 21 µM | M14 17.4 µM | MCF7 22.6 µM | MDA-MB-231 18.4 µM | MDA-N 17.8 µM | MOLT-4 19.1 µM | Malme-3M 21.8 µM | NCI-H226 15.9 µM | NCI-H23 16.5 µM | NCI-H460 15.8 µM | NCI/ADR-RES 23.2 µM | OVCAR-3 15.9 µM | OVCAR-4 17.9 µM | OVCAR-5 24.4 µM | OVCAR-8 24.2 µM | PC-3 26.5 µM | RPMI-8226 31.8 µM | RXF 393 13.2 µM | SF-268 19.5 µM | SF-295 20.4 µM | SF-539 14.7 µM | SK-MEL-28 21.5 µM | SK-MEL-2 18 µM | SK-MEL-5 16 µM | SK-OV-3 44.7 µM | SN12C 17.4 µM | SNB-19 23.8 µM | SNB-75 23.7 µM | SR 16.6 µM | SW-620 28.7 µM | T47D 19.8 µM | TK-10 19.3 µM | U-251 16.2 µM | UACC-257 17.6 µM | UACC-62 15.5 µM | UO-31 17.6 µM
